From PMC3759264 (The Journal of organic chemistry, 2013)

Assays:
M. tuberculosis H37Rv = M. tuberculosis H37Rv MIC assay; assay type: cell-based, Mycobacterium tuberculosis; details: Mtb H37Rv; for MIC50 –Fe: iron-deficient; for MIC50 +Fe: iron-replete
MbtA [1] = molecular target: T1, MbtA (Mycobacterium tuberculosis, UniProt P71716); assay type: binding
MbtA [2] = molecular target: T1, MbtA; assay type: biochemical; details: read-out: Ki^app MbtA; 250 µM salicylic acid, 10 mM ATP, 1 mM PPi, 7 nM MbtA

T1 sequence (P71716 whole entry): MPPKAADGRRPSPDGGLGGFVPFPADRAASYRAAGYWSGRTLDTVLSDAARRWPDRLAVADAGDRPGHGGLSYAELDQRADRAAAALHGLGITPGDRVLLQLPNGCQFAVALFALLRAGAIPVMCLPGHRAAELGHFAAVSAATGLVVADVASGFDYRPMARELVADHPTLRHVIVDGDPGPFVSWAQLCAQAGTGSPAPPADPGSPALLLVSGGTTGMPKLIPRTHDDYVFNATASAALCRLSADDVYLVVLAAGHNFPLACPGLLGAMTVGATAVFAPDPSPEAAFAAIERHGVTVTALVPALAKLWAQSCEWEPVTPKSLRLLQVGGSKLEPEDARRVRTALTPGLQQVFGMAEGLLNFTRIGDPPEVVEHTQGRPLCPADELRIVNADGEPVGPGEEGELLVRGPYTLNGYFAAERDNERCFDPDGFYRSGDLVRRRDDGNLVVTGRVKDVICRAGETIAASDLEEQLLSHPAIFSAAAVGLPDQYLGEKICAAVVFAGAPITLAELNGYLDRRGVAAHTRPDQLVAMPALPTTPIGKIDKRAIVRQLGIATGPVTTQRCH

Structure (SMILES)	MIC50 –Fe (M. tuberculosis H37Rv) [µM]	MIC50 +Fe (M. tuberculosis H37Rv) [µM]	fold loss of potency (KD, MbtA) relative to chromone 1 (MbtA [1]; FP assay) [fold]	Ki (MbtA [2]) [nM]	fold increase in potency (KD, MbtA) relative to chromone 1 (MbtA [1]) [fold]
Nc1ncnc2c1ncn2[C@@H]1O[C@H](CNS(=O)(=O)c2coc3c(O)cccc3c2=O)[C@@H](O)[C@H]1O [Compound 4, 5′-Amino-5′-deoxy-5′-N-[(8-hydroxychromon-3-yl)sulfonyl]adenosine]	>50	>50	80		
Nc1ncnc2c1ncn2[C@@H]1O[C@H](CNS(=O)(=O)c2c[nH]c3ccccc3c2=O)[C@@H](O)[C@H]1O [Compound 2, 5′-Amino-5′-deoxy-5′-N-[(quinol-4-on-3-yl)sulfonyl]adenosine]	>50	>50		120 ± 20	
Nc1ncnc2c1ncn2[C@@H]1O[C@H](CNS(=O)(=O)c2noc3ccccc3c2=O)[C@@H](O)[C@H]1O [Compound 3, 5′-Amino-5′-deoxy-5′-N-[(4-oxo-4H-benzo[e][1,2]oxazin-3-yl)sulfonyl]adenosine]	>50	>50			~10
Nc1ncnc2c1ncn2[C@@H]1O[C@H](CNS(=O)(=O)c2coc3ccccc3c2=O)[C@@H](O)[C@H]1O [Compound 1, 5′-Amino-5′-N-[(chromon-3-yl)sulfonyl]-5′-deoxy-adenosine]	>50	>50			
